Assay results published in patent US20210393932A1, “DERMAL PATCHES AND GLASS SWABS FOR APPLICATION OF TOPICAL IMMUNOSENSITIZERS” (Squarex, LLC, priority 2020, published 2021).
Values joined by “and” are separate entries in the source; they are usually repeats but may differ in a detail not shown here. Equal values may be shown once.

What was measured:
[1] = test system: PBMCs in the presence of HSV-1; assay: Immune gene expression and proliferation of PBMCs from subjects dosed once with SADBE; type: cell-based, human
Source text: Introduction: Differences in immune characteristics, including immune gene expression by peripheral blood mononuclear cells (PBMCs), correlating with herpes labialis and good or poor immune control of herpes simplex virus type 1 (HSV-1) (i.e., frequency of herpes labialis episodes), and how these characteristics change after dosing with squaric acid dibutyl ester (SADBE), were investigated. Methods: PBMCs were collected from persons positive for IgG against HSV-1 and having frequent (self-reported 6 or more episodes in the prior 12 months), infrequent (1 or 2 episodes in the prior 12 months), or no herpes labialis outbreaks in the prior 12 months. The PBMCs were tested for proliferation against HSV-1 and a fungal antigen (Candida) and immune gene expression in the presence of HSV-1 and Candida. On day 1 after blood collection the subjects with frequent outbreaks were dosed topically on the arm once with 2% SADBE in DMSO, and their PBMCs were collected and tested 2 weeks later and 8 weeks later.
Doses were applied by dipping a cotton swab in a 1-ml vial of liquid study medication, then swabbing a spot on the inner aspect of the upper arm over an area of about 10 to 15 mm diameter encircled by petroleum jelly. After application, the spot was covered by TEGADERM™ dressing, and subjects were advised to remove the dressing and wipe the spot with a wet cloth 3 hours later. The weight of the vial of study medication with the vial standing in it was measured immediately before and immediately after dosing each subject. The difference was the net mass of drug applied. In most cases, 10 mg to 20 mg of drug solution was applied to the arm.

[2] = test system: pig skin; assay: Skin irritation (erythema, edema) after SADBE dermal patches in swine; type: in vivo; settings: for Average high erythema score: across all patches, doses and exposure times
Source text: An additional purpose was to assess immediate and delayed skin irritation, including erythema and edema on the pig skin over 4 weeks after dosing. Skin irritation was scored as in Table 5. [table] It was scored 3 times per week at each patch application site for four weeks. The scores shown are the erythema score at the time of patch removal, and then the highest of the 3 scores taken each week for each patch site.

[3] = Residual SADBE and SAMBE in patches after 12 hours on guinea pigs; type: in vivo, guinea pig
Protocol: Patches were removed from the pigs at the indicated times and immediately the reservoir portion of the patch was cut out and placed in a 50 ml tube with 10 ml of DMSO. The tubes of DMSO with patches were transported to the Squarex laboratory, shaken at 200 rpm for 1 hour or more, and then the DMSO from each tube was placed in an injection vial and analyzed for SADBE content by HPLC on a C18 column with the program SADBE3-50 ul. SADBE elutes in this program at about 24.0 minutes and absorbs at 255 nm, so the area of the 24.0 min peak at 255 nm was used to quantify SADBE. The SADBE degradation product squaric acid monobutyl ester (SAMBE) was also quantified by 255 nm area under the curve at the elution time of 12.7 minutes.

[4] = HPLC analysis of test article vials and patch controls in air (mini-pig study); type: physicochemical
Protocol: Squaric acid dibutyl ester (SADBE) at 2% (w/v) concentration in dimethylsulfoxide (DMSO) was added to a skin patch for dermal dosing of SADBE to test for a delayed-type hypersensitivity response or other skin irritation. In the laboratories of Squarex HPLC analysis was conducted to analyze for SADBE content, for analysis of the dose formulation prepared by APS and to determine stability of the test article in the dermal patches during the application time and to test for residual SADBE in the dermal patches after 12 hours applied to the animals.
The skin patches consisted of a polymer backing layer similar to 3M 9916 polyester nonwoven backing layer with adhesive, 3M 9733 polyester film laminate barrier layer, and Precision Fabrics Group 0700-00010 polyester gauze layer. The gauze was heat sealed to the barrier layer. The gauze patch area was 1.53 cm^2.
The tubes of DMSO with patches were transported to the Squarex laboratory, shaken at 200 rpm for 30 minutes to overnight, and then the DMSO from each tube was placed in an injection vial and analyzed for SADBE content by HPLC on a C18 column with the program SADBE3-50 ul. SADBE elutes in this program at about 24.0 minutes and absorbs at 255 nm, so the area of the 24.0 min peak at 255 nm was used to quantify SADBE. The SADBE degradation product squaric acid monobutyl ester (SAMBE) was also quantified by 255 nm area under the curve at the elution time of 12.7 minutes.
The test article vials of 2%, 6%, and 18% SADBE dissolved in DMSO complied with specifications and had the predicted concentrations of SADBE at 24 hours after preparation.
The results indicated the SADBE was stable for more than 12 hours in the patches when not exposed to animal skin. There was no apparent loss of SADBE or conversion of SADBE to SAMBE.

[5] = single topical dose of 2% SADBE in DMSO to the arm, 56 days after dose vs day 1
[6] = 2% patch control, 20 ul, >12 hours in air
[7] = 2% vial, SADBE in DMSO, 24 hours after preparation
[8] = 6% patch control, 20 ul, >12 hours in air
[9] = 6% vial, SADBE in DMSO, 24 hours after preparation
[10] = 18% vial, SADBE in DMSO, 24 hours after preparation

**Q.** With `CCCCOc1c(OCCCC)c(=O)c1=O` [SADBE, squaric acid dibutyl ester] as the compound, how does the “PBMC gene expression or proliferation measures vs day 1” value ([1]; 2 weeks after the one dose of 2% SADBE) read?
**A.** did not differ

**Q.** What about the “IFNG expression in PBMCs in the presence of HSV-1 virus” value [1, 5] of the same compound?
**A.** increasing

**Q.** What about the “IL5 expression in PBMCs in the presence of HSV-1 virus” value [1, 5] of the same compound?
**A.** decreasing

**Q.** And the “Average erythema score weeks 0-3” value ([2]; 20 ul of 2% SADBE, 1 hour exposure)?
**A.** 0

**Q.** And the “Average erythema score weeks 0-3” value ([2]; 20 ul of 2% SADBE, 3 hours exposure)?
**A.** 0.83

**Q.** What about the “Average erythema score weeks 0-3” value ([2]; 20 ul of 2% SADBE, 6 hours exposure) of the same compound?
**A.** 0.92

**Q.** What about the “Average erythema score weeks 0-3” value ([2]; 20 ul of 2% SADBE, 24 hours exposure) of the same compound?
**A.** 1.5

**Q.** What about the “Average erythema score weeks 0-3” value ([2]; 50 ul of 2% SADBE, 1 hour exposure) of the same compound?
**A.** 1.5

**Q.** And the “Average erythema score weeks 0-3” value ([2]; 50 ul of 2% SADBE, 3 hours exposure)?
**A.** 2.125

**Q.** And the “Average erythema score weeks 0-3” value ([2]; 50 ul of 2% SADBE, 6 hours exposure)?
**A.** 1.92

**Q.** What about the “Average erythema score weeks 0-3” value ([2]; 50 ul of 2% SADBE, 24 hours exposure) of the same compound?
**A.** 2.5

**Q.** And the “Average erythema score weeks 0-3” value ([2]; 80 ul of 2% SADBE, 1 hour exposure)?
**A.** 1.375

**Q.** What about the “Average erythema score weeks 0-3” value ([2]; 80 ul of 2% SADBE, 3 hours exposure) of the same compound?
**A.** 1.625

**Q.** And the “Average erythema score weeks 0-3” value ([2]; 80 ul of 2% SADBE, 6 hours exposure)?
**A.** 1.25

**Q.** And the “Average erythema score weeks 0-3” value ([2]; 80 ul of 2% SADBE, 24 hours exposure)?
**A.** 2.25

**Q.** And the “Average high erythema score” value ([2]; Week 1)?
**A.** 1.05

**Q.** What about the “Average high erythema score” value ([2]; Week 2) of the same compound?
**A.** 2.60

**Q.** What about the “Average high erythema score” value ([2]; Week 3) of the same compound?
**A.** 1.73

**Q.** And the “Average high erythema score” value ([2]; Week 4)?
**A.** 0.00

**Q.** What about the “edema at drug application site” value ([2]; any site, any time after patch application and removal) of the same compound?
**A.** No pigs had edema

**Q.** And the “Average high erythema score” value ([2]; at patch removal)?
**A.** 0.63

**Q.** What about the “SADBE as % of expected (remaining in patch)” value ([3]; 2% patches, range of 10 patches) of the same compound?
**A.** 0.0-1.3%

**Q.** What about the “SADBE as % of expected (remaining in patch)” value ([3]; 6% patches, average of 10 patches) of the same compound?
**A.** 11% and 10.67%

**Q.** What about the “SADBE as % of expected (remaining in patch)” value ([3]; 6% patches, range of 10 patches) of the same compound?
**A.** 2.7-22.7%

**Q.** What about the “SADBE as % of expected (remaining in patch)” value ([3]; 18% patches, average of 10 patches) of the same compound?
**A.** 34% and 34.13%

**Q.** And the “SADBE as % of expected (remaining in patch)” value ([3]; 18% patches, range of 10 patches)?
**A.** 23.0-46.5%

**Q.** What about the “% of expected SADBE” value [4, 6] of the same compound?
**A.** 97.7%

**Q.** What about the “SAMBE as percent of SADBE” value [4, 6] of the same compound?
**A.** 0.86%

**Q.** And the “% of expected SADBE” value [4, 7]?
**A.** 100.8%

**Q.** What about the “SAMBE as percent of SADBE” value [4, 7] of the same compound?
**A.** 0.88%

**Q.** What about the “% of expected SADBE” value [4, 8] of the same compound?
**A.** 96.8%

**Q.** What about the “SAMBE as percent of SADBE” value [4, 8] of the same compound?
**A.** 0.96%

**Q.** What about the “% of expected SADBE” value [4, 9] of the same compound?
**A.** 97.5%

**Q.** What about the “SAMBE as percent of SADBE” value [4, 9] of the same compound?
**A.** 0.96%

**Q.** What about the “% of expected SADBE” value [4, 10] of the same compound?
**A.** 104.4%

**Q.** What about the “SAMBE as percent of SADBE” value [4, 10] of the same compound?
**A.** 1.00%

**Q.** And the “time SADBE was stable in the patches” value ([4]; patches not exposed to animal skin, no apparent loss or conversion to SAMBE)?
**A.** more than 12 hours
